From patent US20240199587A1, “HETEROCYCLIC COMPOUNDS” (Hoffmann-La Roche Inc., priority 2021, published 2024)

Molecular target: T1, MAGL (Homo sapiens, UniProt Q99685)
T1 sequence (Q99685 1-303): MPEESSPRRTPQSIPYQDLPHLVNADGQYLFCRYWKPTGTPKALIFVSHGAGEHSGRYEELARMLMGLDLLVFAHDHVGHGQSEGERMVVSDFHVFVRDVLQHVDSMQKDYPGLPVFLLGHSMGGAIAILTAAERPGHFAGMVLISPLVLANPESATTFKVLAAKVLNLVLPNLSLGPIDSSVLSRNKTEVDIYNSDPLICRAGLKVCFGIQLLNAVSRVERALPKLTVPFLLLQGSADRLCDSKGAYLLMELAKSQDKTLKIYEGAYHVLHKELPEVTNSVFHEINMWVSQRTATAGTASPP
Test: 2-AG assay (MAGL inhibitory activity, hydrolysis of 2-arachidonoylglycerol to arachidonic acid followed by mass spectrometry)
Type: biochemical
Settings: 8 μM 2-arachidonoylglycerol, 15 min pre-incubation, 30 min incubation at RT, RapidFire MS readout
How it was run: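 Arachidonic acid released from 8 μM 2-arachidonoylglycerol was quantified by online SPE triple-quadrupole MS (negative ESI, 303.1→259.1), normalised to d8-arachidonic acid internal standard. Reaction ran 30 min at RT after 15 min RT compound pre-incubation with […] MAGL in TRIS/EDTA/Tween-20 buffer, 2.5% DMSO.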

Going from `CNC(=O)C(c1ccccc1)N1CC2(CN(C(=O)N3CC4(CC(n5cnc(C6CC6)n5)C4)C3)C2)C1` (centres unmarked) [Example 311, 2-[2-[6-(3-cyclopropyl-1,2,4-triazol-1-yl)-2-azaspiro[3.3]heptane-2-carbonyl]-2,6-diazaspiro[3.3]heptan-6-yl]-N-methyl-2-phenyl-acetamide] to `O=C(N1CC2(CC(n3cnc(C4CC4)n3)C2)C1)N1CC2(C1)CN(S(=O)(=O)c1ccccc1C(F)(F)F)C2` [Example 223, [6-(3-cyclopropyl-1,2,4-triazol-1-yl)-2-azaspiro[3.3]heptan-2-yl]-[2-[2-(trifluoromethyl)phenyl]sulfonyl-2,6-diazaspiro[3.3]heptan-6-yl]methanone], the IC50 falls from 176 nM to 3 nM (59-fold).

Going from `COc1ncccc1S(=O)(=O)N1CC2(CN(C(=O)N3CC4(CC(n5cnc(C6CC6)n5)C4)C3)C2)C1` [Example 309, [6-(3-cyclopropyl-1,2,4-triazol-1-yl)-2-azaspiro[3.3]heptan-2-yl]-[2-[(2-methoxy-3-pyridyl)sulfonyl]-2,6-diazaspiro[3.3]heptan-6-yl]methanone] to `O=C(N1CC2(CC(n3cnc(C4CC4)n3)C2)C1)N1CC2(C1)CN(S(=O)(=O)c1cccnc1Cl)C2` [Example 243, [2-[(2-chloro-3-pyridyl)sulfonyl]-2,6-diazaspiro[3.3]heptan-6-yl]-[6-(3-cyclopropyl-1,2,4-triazol-1-yl)-2-azaspiro[3.3]heptan-2-yl]methanone], the IC50 falls from 148 nM to 8.8 nM (17-fold).

First: CC(C)(C)c1nc(-c2ccc(C(=O)N3CC4(CC(n5cnc(C6CC6)c5)C4)C3)cc2)no1 [Example 64, (4-(5-(tert-butyl)-1,2,4-oxadiazol-3-yl)phenyl)(6-(4-cyclopropyl-1H-imidazol-1-yl)-2-azaspiro[3.3]heptan-2-yl)methanone]
Second: CC(C)(C)c1nc(-c2ccc(C(=O)N3CC4(C3)CC(O)(c3cnc(C5CC5)o3)C4)cc2)no1 [Example 179, [4-(5-tert-butyl-1,2,4-oxadiazol-3-yl)phenyl]−[6-(2-cyclopropyloxazol-5-yl)-6-hydroxy-2-azaspiro[3.3]heptan-2-yl]methanone]
The IC50 of the first is 47-fold lower: 21.7 nM for the first, 1030 nM for the second. The first is the more potent here.

Compared with `CC1(O)CN(c2ccc(C3CN(C(=O)N4CC5(CC(n6cnc(C(F)(F)F)n6)C5)C4)C3)cn2)C1` [Example 453, [3-[6-(3-hydroxy-3-methyl-azetidin-1-yl)-3-pyridyl]azetidin-1-yl]-[6-[3-(trifluoromethyl)-1,2,4-triazol-1-yl]-2-azaspiro[3.3]heptan-2-yl]methanone], `CS(=O)(=O)c1cccc(CC2CC3(C2)CN(C(=O)N2CC4(CC(n5cnc(C(F)(F)F)n5)C4)C2)C3)c1` [Example 456, [6-[(3-methylsulfonylphenyl)methyl]-2-azaspiro[3.3]heptan-2-yl]-[6-[3-(trifluoromethyl)-1,2,4-triazol-1-yl]-2-azaspiro[3.3]heptan-2-yl]methanone] is 34-fold lower in IC50: 39.4 nM for the first, 1.16 nM for the second.

First: O=C(N1CC2(CC(Cc3cnc(C(F)(F)F)cn3)C2)C1)N1CC2(CC(n3cnc(C4CC4)n3)C2)C1 [Example 193, [6-(3-cyclopropyl-1,2,4-triazol-1-yl)-2-azaspiro[3.3]heptan-2-yl]-[6-[[5-(trifluoromethyl)pyrazin-2-yl]methyl]-2-azaspiro[3.3]heptan-2-yl]methanone]
Second: O=C(N1CC2(CC(n3cnc(C4CC4)n3)C2)C1)N1CC2(C1)CN(S(=O)(=O)c1ccc(C(F)(F)F)nc1)C2 [Example 255, [6-(3-cyclopropyl-1,2,4-triazol-1-yl)-2-azaspiro[3.3]heptan-2-yl]-[2-[[6-(trifluoromethyl)-3-pyridyl]sulfonyl]-2,6-diazaspiro[3.3]heptan-6-yl]methanone]
The IC50 of the first is 57-fold lower: 0.3 nM for the first, 17.2 nM for the second. The first is the more potent here.

First: O=C(N1CC(c2ccc(-c3ccc(Cl)cc3F)cn2)C1)N1CC2(CC(c3ccc(C(F)(F)F)nc3)C2)C1 [Example 539, [3-[5-(4-chloro-2-fluoro-phenyl)-2-pyridyl]azetidin-1-yl]-[6-[6-(trifluoromethyl)-3-pyridyl]-2-azaspiro[3.3]heptan-2-yl]methanone]
Second: O=C(N1CC(c2cnc(NCC3(C(F)(F)F)CC3)cn2)C1)N1CC2(CC(n3cnc(C4CC4)n3)C2)C1 [Example 470, [6-(3-cyclopropyl-1,2,4-triazol-1-yl)-2-azaspiro[3.3]heptan-2-yl]-[3-[5-[[1-(trifluoromethyl)cyclopropyl]methylamino]pyrazin-2-yl]azetidin-1-yl]methanone]
The IC50 of the first is 420-fold higher: 176 nM for the first, 0.42 nM for the second.

Compared with `CC(C)(C)n1cc(-c2ccc(C(=O)N3CC4(CC(n5cnc(Cl)n5)C4)C3)cc2)cn1` [Example 170, [4-(1-tert-butylpyrazol-4-yl)phenyl]-[6-(3-chloro-1,2,4-triazol-1-yl)-2-azaspiro[3.3]heptan-2-yl]methanone], `CS(=O)(=O)c1ccc(CN2CC3(C2)CN(C(=O)N2CC4(CC(n5cnc(C6CC6)n5)C4)C2)C3)cc1` [Example 500, [6-(3-cyclopropyl-1,2,4-triazol-1-yl)-2-azaspiro[3.3]heptan-2-yl]-[6-[(4-methylsulfonylphenyl)methyl]-2,6-diazaspiro[3.3]heptan-2-yl]methanone] is 7.2-fold lower in IC50: 286 nM for the first, 39.6 nM for the second.

`NC(=O)C1CC(F)(F)CCN1c1ccc(C2CN(C(=O)N3CC4(CC(n5cnc(C6CC6)n5)C4)C3)C2)cc1` (centres unmarked) [Example 503, 1-[4-[1-[6-(3-cyclopropyl-1,2,4-triazol-1-yl)-2-azaspiro[3.3]heptane-2-carbonyl]azetidin-3-yl]phenyl]-4,4-difluoro-piperidine-2-carboxamide] and `NC(=O)[C@H]1CC(F)(F)CCN1c1ccc(C2CN(C(=O)N3CC4(CC(n5cnc(C6CC6)n5)C4)C3)C2)cc1` (single isomer, unassigned) [Example 493] are within 1.5-fold of each other in IC50: 1.53 nM for the first, 1.28 nM for the second.

Going from `O=C(N1CC(C23CC(c4nnc(CC(F)(F)F)o4)(C2)C3)C1)N1CC2(CC(n3cnc(C4CC4)n3)C2)C1` [Example 435, [6-(3-cyclopropyl-1,2,4-triazol-1-yl)-2-azaspiro[3.3]heptan-2-yl]-[3-[3-[5-(2,2,2-trifluoroethyl)-1,3,4-oxadiazol-2-yl]-1-bicyclo[1.1.1]pentanyl]azetidin-1-yl]methanone] to `O=C(N1CC(Oc2ccnc(C3CC3)n2)C1)N1CC2(CC(n3cnc(C4CC4)n3)C2)C1` [Example 274, [3-(2-cyclopropylpyrimidin-4-yl)oxyazetidin-1-yl]-[6-(3-cyclopropyl-1,2,4-triazol-1-yl)-2-azaspiro[3.3]heptan-2-yl]methanone], the IC50 rises from 7.69 nM to 34.8 nM (4.5-fold). The first is the more potent here.

Going from `CS(=N)(=O)c1ccc(CC2CC3(C2)CN(C(=O)N2CC4(CC(n5cnc(C6(O)CC6)n5)C4)C2)C3)cc1` (centres unmarked) [Example 405, [6-[3-(1-hydroxycyclopropyl)-1,2,4-triazol-1-yl]-2-azaspiro[3.3]heptan-2-yl]-[6-[[4-(methylsulfonimidoyl)phenyl]methyl]-2-azaspiro[3.3]heptan-2-yl]methanone] to `CS(=O)(=O)c1cc(F)cc(CC2CC3(C2)CN(C(=O)N2CC4(CC(n5cnc(C6CC6)n5)C4)C2)C3)c1` [Example 468, [6-(3-cyclopropyl-1,2,4-triazol-1-yl)-2-azaspiro[3.3]heptan-2-yl]-[6-[(3-fluoro-5-methylsulfonyl-phenyl)methyl]-2-azaspiro[3.3]heptan-2-yl]methanone], the IC50 falls from 169 nM to 0.15 nM (1100-fold).
